PMC3809078 (Journal of natural products, 2013)

Assays:
T47D cells = experiment: Cell proliferation/viability assay; type: cell-based, human
MDA-MB-231 cells = experiment: Cell proliferation/viability assay; type: cell-based, human
[1] = tested on: retinoic acid receptors (RARs); conditions: cytotoxic activity attributed to it; cited from earlier work

SMILES	effect on cell viability (in words) (T47D cells)	effect on cell viability (in words) (MDA-MB-231 cells)	action on retinoic acid receptors (in words) [1]
CC1=C(CC/C(C)=C/CC/C(C)=C/C[C@@H](O)C2=CC(=O)OC2)C(C)(C)C(=O)CC1 [Compound 1, thorectidaeolide A]	Neither 1, nor 2, or any of the other less active sesterterpenes suppressed	Neither 1, nor 2, or any of the other less active sesterterpenes suppressed	–
CC(=O)O[C@H](C/C=C(\C)CC/C=C(\C)CCC1=C(C)CCC(=O)C1(C)C)C1=CC(=O)OC1 [Compound 2, 4-acetoxythorectidaeolide A]	Neither 1, nor 2, or any of the other less active sesterterpenes suppressed	Neither 1, nor 2, or any of the other less active sesterterpenes suppressed	–
CC1=C(CC/C(C)=C/CC/C(C)=C/CCC2=CC(=O)OC2O)C(C)(C)CCC1 (stereo not shown) [Compound 11, luffariellolide]	significant level of cytotoxicity	significant level of cytotoxicity	agonist of retinoic acid receptors
